From US10662193B2, “Carbazole and carboline compounds for use in the diagnosis, treatment, alleviation or prevention of disorders associated with amyloid or amyloid-like proteins” (AC IMMUNE SA, priority 2014, dated 2020)
Where two headings read alike, the source gives them in different places.

Tests used:
Format in all cases: binding
[1] = molecular target: Tau enriched paired helical filaments (PHF) from human Alzheimer's disease (AD) brains (Homo sapiens, UniProt P10636); assay: Assay 3: backscattering interferometry, dissociation constants (Kd)
Source text: Assay 3 (Backscattering Interferometry):
Determination of Dissociation Constants (Kd) of Compounds of this Invention
Enrichment of Paired Helical Filaments (PHF's) from Human Alzheimer's Disease Brains
For backscattering interferometry, Tau enriched paired helical filaments (PHF) from human Alzheimer's disease (AD) brains were used as a target. Due to the limited availability of tissues, to determine dissociation constants (Kd) of compounds of this invention to the target, two different batches of enriched PHF were used. These batches are identified as batch 6 and 7 and were prepared as follows.
PHF batch number 6 was prepared starting from 25 g frontal cortical tissue from post-mortem brains of 25 Alzheimer's disease (AD) patients which were obtained from the London Tissue Bank. The mean age at death for the AD patients was 76 years (48% females). Brain samples were characterized for Braak disease stage (Braak and Braak, 1991), with most donors displaying a stage VI. The postmortem interval between death and brain dissection was between 6 and 65 h. Human brain homogenates were prepared by SB Drug Discovery (Glasgow, Scotland, UK) from the post-mortem cortical tissue of the 25 patients). Each tissue (1 g) was homogenized with a Dounce glass homogenizer in 1.5 mL 100 mM 2-(N-morpholino) ethane-sulfonic acid (MES) pH 6.8, 0.75 M NaCl, 1 mM EGTA, 0.5 mM MgSO4, 2 mM DTT containing protease inhibitors (Complete; Roche 11697498001). For each sample, two aliquots containing 0.5 g brain homogenates in 0.75 mL were shipped to AC Immune SA on dry ice and stored at −80° C. For the enrichment of PHF, 1 aliquot per donor corresponding to total 12.5 g of brain tissue were thawed on ice and then incubated at 4° C. for 20 min to depolymerize any residual microtubules. All samples were then pooled and transferred to three polycarbonate centrifuge bottles (16×76 mm; Beckman 355603).
PHF batch number 7 was prepared starting from 32 g of parietal cortex tissue from post-mortem brain of one Alzheimer's disease (AD) patient was obtained from an external provider (Tissue Solution). The patient was a person who died for end stage AD. The brain sample was collected 5 h post-mortem and characterized for Braak disease stage (Braak and Braak, 1991) as stage VI. The method used for the PHF enrichment was modified from published procedures (Jicha et al., 1997; Rostagno and Ghiso, 2009). Around 16 g of the AD human brain was thawed on ice and homogenized with 50 ml of homogenization buffer [0.75 M NaCl in RAB buffer (100 mM 2-(N-morpholino) ethanesulfonic acid (MES), 1 mM EGTA, 0.5 mM MgSO4, 2 mM DTT, pH 6.8) supplemented with protease inhibitors (Complete; Roche 11697498001)] in a glass Dounce homogenizer. The homogenate was then incubated at 4° C. for 20 min to let depolymerize any residual microtubules, before being transferred into polycarbonate centrifuge bottles (16×76 mm; Beckman 355603). For both purifications, brain homogenates were then centrifuged at 11,000 g (12,700 RPM) in an ultracentrifuge (Beckman, XL100K) for 20 min at 4° C. using the pre-cooled 70.1 rotor (Beckman, 342184). Pellets were kept on ice. Supernatants were pooled into polycarbonate bottles and centrifuged again at 100,000 g (38,000 RPM) for 1 h at 4° C. in the 70.1 Ti rotor to isolate PHF-rich pellets, whereas soluble Tau remained in the supernatants. The pellets from the first and second centrifugations were resuspended in 120 mL of extraction buffer [10 mM Tris-HCl pH 7.4, 10% sucrose, 0.85 M NaCl, 1% protease inhibitor (Calbiochem 539131), 1 mM EGTA, 1% phosphatase inhibitor (Sigma P5726 and P0044)]. The solution was then transferred into polycarbonate centrifuge bottles (16×76 mm; Beckman 355603) and centrifuged at 15,000 g (14,800 RPM) in an ultracentrifuge (Beckman, XL100K) for 20 min at 4° C. using the 70.1 Ti rotor. […]

[2] = test system: tau tangles/Aβ plaques on AD brain sections; assay: Assay 1: direct staining of human Alzheimer's disease brain sections (fluorescence); set-up: key to Direct staining of tau tangles/Aβ plaques on AD brain sections at 100 μM / Direct staining of tau tangles on AD brain sections at 100 μM / Direct staining of Aβ plaques on AD brain sections at 100 μM / Direct staining of tau tangles on AD brain sections (footnote a: at 250 μM): − (No); +++ (strong); ++ (good); + (weak); details: 100 μM compound
Method in brief: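 Frozen […] amygdala sections from Braak V-VI AD donors, PFA-fixed, incubated with compound at 100 μM in 50% ethanol for 20 min at room temperature in the dark. Sudan Black quenched autofluorescence, then staining detected by fluorescence microscopy.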

[3] = test system: Aβ plaques on AD brain section; assay: Assay 1: displacement of Compound B on human AD brain sections (fluorescence)
Description: Direct Binding of Compounds of this Invention to Human Alzheimer's Disease Brain Sections and/or Displacement of RefA and Compound B Frozen sections with a thickness of […] from the amygdala of donors diagnosed with Braak stage V-VI Alzheimer's Disease (Braak, H.; Braak, E. Acta Neuropathol., 1991, 82, 239-259), were purchased from a commercial provider (Tissue Solutions) and kept at -80° C. until use. Displacement of RefA and Compound B Brain sections were mainly treated as described above. Test compounds were, however, incubated on the section at 250 μM in 50% ethanol for 20 min at room temperature, and then directly incubated with the fluorescent reference compounds RefA and Compound B, each at 1 μM in 50% ethanol for 20 min at room temperature. RefA and Compound B stainings were visualized using the 470 nm and 365 nm excitation filters, respectively. Images were acquired, and tangles and plaques quantified using the NIS-Element software. Only those compounds not directly staining tangles or plaques at the same wavelengths as RefA and Compound B were tested in the displacement assay. Structure of Compound B (prepared by a similar procedure described for […] in WO2010/011964): […]

[4] = test system: tau tangles on AD brain section; assay: Assay 1: displacement of RefA on human AD brain sections (fluorescence); details: for Selectivity (tau/Abeta): ratio of competition on tau tangles to competition on Aβ plaques
Description: Direct Binding of Compounds of this Invention to Human Alzheimer's Disease Brain Sections and/or Displacement of RefA and Compound B
Frozen sections with a thickness of […] from the amygdala of donors diagnosed with Braak stage V-VI Alzheimer's Disease (Braak, H.; Braak, E. Acta Neuropathol., 1991, 82, 239-259), were purchased from a commercial provider (Tissue Solutions) and kept at −80° C. until use.
Displacement of RefA and Compound B
Brain sections were mainly treated as described above. Test compounds were, however, incubated on the section at 250 μM in 50% ethanol for 20 min at room temperature, and then directly incubated with the fluorescent reference compounds RefA and Compound B, each at 1 μM in 50% ethanol for 20 min at room temperature. RefA and Compound B stainings were visualized using the 470 nm and 365 nm excitation filters, respectively. Images were acquired, and tangles and plaques quantified using the NIS-Element software. Only those compounds not directly staining tangles or plaques at the same wavelengths as RefA and Compound B were tested in the displacement assay.
Structure of RefA (Tago et al., J. Label. Compd. Radiopharm. 2013, DOI: 10.1002/jlcr.3133)

[5] = test system: human brain slices from the frontal and/or temporal lobes of AD patients; assay: Autoradiography with 18F-labeled compounds using human brain tissue; details: FIG. 14; for competition with amyloid binding compound: block with an amyloid binding compound; for competition with corresponding cold compound: blocking compound 10 μM
Description: Autoradiography Using Human Brain Tissue
18 micron thick frozen human brain slices and 6 micron thick human FFPE brain slices from the frontal and/or temporal lobes of AD patients were examined via autoradiography. Brain sections were equilibrated for at least 1 h in 1×PBS solution prior to use in the experiment. Each brain section was covered with a solution of the F-18 labeled tracer (200 Bq/μl, 500 μl) in 1×PBS. For blocking experiments with the corresponding 19F-labeled compound, an excess of the blocking compound was mixed with the 18F-compound to yield an end concentration of 10 μM. The brain sections were allowed to incubate with the tracer solution at room temperature for 1 h, drained afterwards and placed in a slide holder. The slides were then washed sequentially with 1×PBS for 1 min; 70% EtOH in 1×PBS for 2 min; 30% EtOH in 1×PBS for 2 min; and 1×PBS for 1 min. The slides were allowed to air-dry before being placed on Fuji imaging plates for overnight exposure. The imaging plates were scanned and the signal was measured using Fuji software to produce an autoradiographic image of the brain section. Representative examples of autoradiography studies with ^18F-178, ^18F-189, ^18F-161, ^18F-95, ^18F-168, ^18F-146, ^18F-156, ^18F-159 are shown in FIGS. 9 to 12.
The specificity of the signals was confirmed by blocking with an excess of the corresponding non-radioactive compounds.

[6] = PHF batch 7 (parietal cortex, one AD patient), read-out: [Kd] on PHF batch 7
[7] = PHF batch 6 (pooled frontal cortex, 25 AD patients), read-out: [Kd] on PHF batch 6

Sequence of Tau enriched paired helical filaments (PHF) from human Alzheimer's disease (AD) brains (P10636 623-708 limits assumed): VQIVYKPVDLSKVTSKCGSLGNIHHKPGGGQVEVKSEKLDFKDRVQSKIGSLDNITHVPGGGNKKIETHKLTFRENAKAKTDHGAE

Compound	Kd [1, 6] [nM]	Direct staining of tau tangles on AD brain sections at 100 μM [2]	Kd [1, 7] [nM]	also measured
Cn1c2ccncc2c2ccc(N3CCN(CCF)CC3)nc21 [168 Step B]	160 ± 30	++ (tangles)		Competition on AD brain section Aβ plaques (1 μM Compound B vs 250 μM compound) [3]: −1%
Cn1c2ccncc2c2ccc(Nc3ccnc(F)c3)nc21 [Example 23]	11 ± 2		38 ± 6	
Cn1c2ccncc2c2ccc(Nc3cccc(F)n3)nc21 [Example 28]	400 ± 60	+ (tangles)		
Cn1c2ccncc2c2ccc(Nc3cc(F)ccn3)nc21 [Example 51]	260 ± 50	+++ (tangles)		
Cn1c2ccncc2c2ccc(Nc3cc(OCCF)ccn3)nc21 [Example 63]			20 ± 3	
Cn1c2ccncc2c2ccc(N3CC4(CC(F)C4)C3)nc21 [Example 146]	40 ± 10	++ (tangles)		Competition on AD brain section Aβ plaques (1 μM Compound B vs 250 μM compound) [3]: 0%
Cn1c2ccncc2c2ccc(N3[C@@H]4CC[C@H]3C[C@H](F)C4)nc21 [Example 147]	170 ± 40	++ (tangles)		
Cn1c2ccncc2c2ccc(N3CC4(CC(OCCOCCOCCF)C4)C3)nc21 [Example 153]		++ (tangles)	20 ± 5	
Cn1c2ccncc2c2ccc(N3CC4(CC(OCCF)C4)C3)nc21 [Example 154]	270 ± 50	++ (tangles)		
Cn1c2ccncc2c2ccc(N3CCC(OCCF)CC3)nc21 [Example 156]		+ (tangles)	26 ± 7	Competition on AD brain section tau tangles (1 μM RefA vs. 250 μM compound) [4]: 72%; Selectivity (tau/Abeta) [4]: >72 fold; Competition on AD brain section Aβ plaques (1 μM Compound B vs 250 μM compound) [3]: −8%
Cn1c2ccncc2c2ccc(N3CCC[C@@H](F)C3)nc21 [Example 159]	120 ± 20	+ (tangles)		
Cn1c2ccncc2c2ccc(N3CCC(F)CC3)nc21 [Example 161]		+ (tangles)	18 ± 3	Competition on AD brain section tau tangles (1 μM RefA vs. 250 μM compound) [4]: 85%; Selectivity (tau/Abeta) [4]: ~6-fold; Competition on AD brain section Aβ plaques (1 μM Compound B vs 250 μM compound) [3]: 14%
CN1CCc2c(c3ccc(Nc4cccc(OCCF)c4)nc3n2C)C1=O [Example 189]		++ (tangles)	16 ± 3	
Cn1c2cc[nH]c(=O)c2c2ccc(Nc3cccc(OCCF)c3)nc21 [Example 197]		+ (tangles)	100 ± 15	
Cn1c2c(c3ccc(Nc4ccc(F)c(OCCF)c4)nc31)C(=O)NCC2 [Example 201]			75 ± 12	Direct staining of tau tangles/Aβ plaques on AD brain sections at 100 μM ([2]; human AD brain sections, fluorescence, cell does not say tangles or plaques): −
Cn1c2ccncc2c2ccc(N3CCC(OCCOCC[18F])CC3)nc21 [^18F-152]				competition with amyloid binding compound [5]: no competition; competition with corresponding cold compound [5]: Competition observed
Cn1c2ccncc2c2ccc(N3CCC(OCC[18F])CC3)nc21 [^18F-156]				competition with amyloid binding compound [5]: no competition; competition with corresponding cold compound [5]: Competition observed
Cn1c2ccncc2c2ccc(N3CC[C@H]([18F])C3)nc21 [^18F-160]				competition with amyloid binding compound [5]: no competition; competition with corresponding cold compound [5]: Competition observed
Cn1c2ccncc2c2ccc(N3CCC([18F])CC3)nc21 [^18F-161]				competition with amyloid binding compound [5]: no competition; competition with corresponding cold compound [5]: Competition observed
Cn1c2ccncc2c2ccc(N3CCN(CC[18F])CC3)nc21 [^18F-168]				competition with amyloid binding compound [5]: no competition; competition with corresponding cold compound [5]: Competition observed
Cn1c2c(c3ccc(Nc4cccc(OCCF)c4)nc31)C(=O)NCC2 [drawing 1063]			46 ± 9	
